Laboratory results: US20180214467A1, “GLP-1 SECRETAGOGUE” (EDUCATIONAL FOUNDATION JICHI MEDICAL UNIVERSITY, priority 2015, published 2018)

Tests used:
C57BL/6J male mice [1] = assay: Portal vein active GLP-1 and total GIP 30 minutes after oral administration of monosaccharides to fasting mice (Example 2); assay type: in vivo; details: 30 minutes after administration, vs saline
Procedure: To the C57BL/6J male mice (9-11 weeks old) having fasted for 16 hours from 18:00 on the day before the experiment, D-psicose at 0.3 g/kg or 1 g/kg, D-tagatose or D-glucose each at 1 g/kg, or saline was orally administered into each stomach at 10:00 AM. The dose of the oral administration was 10 ml/kg. The blood was collected from the portal vein under isoflurane anesthesia 30 minutes after the administration. Note that an anticoagulant (heparin (final concentration: 50 IU/ml)) and peptide degradation suppressors (aprotinin (final concentration: 500 KIU/ml) and vildagliptin (final concentration: 10 μM)) had been added into the sampling syringes in advance. The collected blood was cooled and centrifuged. The blood plasma was stored at −80° C. until the analysis. The quantitative analyses of active GLP-1 and total GIP were conducted using the above-described kits. In addition, as the statistical analyses, a one-way analysis of variance (unpaired) was performed, followed by Dunnett's test using saline as the control. […] Note that, in FIG. 3, * indicates p<0.05, and ** indicates p<0.01. Moreover, numerical values in bar graphs in the figure each indicate the number of experiments.

C57BL/6J male mice [2] = assay: Portal vein active GLP-1, total GLP-1 and total GIP over time after oral administration to fasting mice (Example 1); assay type: in vivo; details: 1 g/kg oral
Procedure: As the experimental animal, C57BL/6J male mice (9-11 weeks old) were used. To the mice having fasted for 16 hours from 18:00 on the day before the experiment, D-psicose at 1 g/kg was orally administered into each stomach at 10:00 AM. The dose of the oral administration was 10 ml/kg. Before the D-psicose administration and 30 minutes and 60 minutes after the administration, the blood was collected from the portal vein under isoflurane anesthesia. Note that an anticoagulant (heparin (final concentration: 50 IU/ml)) and peptide degradation suppressors (aprotinin (final concentration: 500 KIU/ml) and vildagliptin (final concentration: 10 μM)) had been added into the sampling syringes in advance. The collected blood was cooled, centrifuged, and stored at −80° C. until the resulting blood plasma was analyzed. The quantitative analyses of active GLP-1, total GLP-1, and total GIP were conducted using ELISA kits (manufactured by Millipore Corporation. EGLP-35K, EZGLPIT-36K, and EZRMGIP-55K, respectively). In addition, as the statistical analyses, a one-way analysis of variance (paired) was performed, followed by Dunnett's test using a value before the D-psicose administration (0 min) as the control. […] Note that, in FIG. 2, * indicates p<0.05, and ** indicates p<0.01. Moreover, numerical values in bar graphs in FIG. 2 each indicate the number of experiments.

Sprague Dawley rat = assay: Blood glucose and total GLP-1 over time after oral administration to fasted rats (Example 5); assay type: in vivo; details: 2 g/kg body weight oral, fasted SD rats, 0 to 240 minutes
Procedure: Before a sample was administered (0 minutes), the blood was collected from the tail vein of each Sprague Dawley rat (8 to 9 weeks old male) having fasted overnight. Using a feeding tube, each solution of deionized water (control group), D-psicose, an indigestible dextrin (DE10), and a dextrin (the product manufactured by Matsutani Chemical Industry Co., Ltd.: “Pinedex #2” (DE10)) was orally administered at 2 g/kg body weight (10 mL/kg body weight). Then, the blood was collected from the tail vein after 15 minutes, 30 minutes, 60 minutes, 90 minutes, 120 minutes, 150 minutes, 180 minutes, 210 minutes, and 240 minutes.
The blood was collected into a tube to which a DPP-IV inhibitor (manufactured by Millipore Corporation), aprotinin (manufactured by Wako Pure Chemical Industries, Ltd.), and heparin (manufactured by Nacalai Tesque, Inc.) had been added in advance. The blood plasma was collected by centrifugation, and cryopreserved at −80° C. The total GLP-1 concentration in the resulting blood plasma was measured with a commercially available ELISA kit (Multi Species GLP-1 Total ELISA manufactured by Millipore Corporation). The glucose concentration in the blood plasma was measured with Glucose CII-Test Wako (manufactured by Wako Pure Chemical Industries, Ltd.).

C57BL/6J male mice [3] = assay: Amount of diet ingested after oral D-psicose or D-tagatose (Example 4); assay type: in vivo; details: 1 g/kg oral, vs control group (saline)
Procedure: The C57BL/6J male mice (7-11 weeks old) were preliminarily grown in separate cages for one week or more, and habituated to the growth and experimental environment through training by the experimenter. After the fasting for 16 hours from 18:00 on the day before the experiment, saline, D-psicose at 1 g/kg, or D-tagatose at 1 g/kg was orally administered into each stomach from 9:50. The doses were each 10 ml/kg. From 10:00, the mice were fed with Diet CE-2 ad lib. After 1 hour, 2 hours, and 6 hours, the amounts of the diet ingested were measured over time. Each amount of the diet ingested was calculated as the amount of energy ingested (kcal), given that 1 g of D-tagatose orally administered into the stomach is 2 kcal, and 1 g of Diet CE-2 is 3.45 kcal. As the statistical analyses, a one-way analysis of variance (unpaired) was performed on the results at the respective time points, and multiple comparisons were performed by Tukey's test among all the groups. […] Note that, in FIG. 5, * indicates p<0.05, and ** indicates p<0.01.

healthy subjects = assay: Total GLP-1 blood concentration AUC after single ingestion by healthy subjects (Example 6); assay type: in vivo; details: humans, fasting
Procedure: After setting a termination period for one week or more in advance, 200 ml of water (control beverage) or D-psicose at 5 g/200 ml (D-psicose: 0.07 to 0.11 g/kg body weight), 10 g/200 ml (D-psicose: 0.14 to 0.22 g/kg body weight), or 15 g/200 ml (test beverage) (D-psicose: 0.21 to 0.33 g/kg body weight) each at a single dose was randomly ingested by six healthy subjects (three men and three women. The body weights: 53.3±7.4 kg). In the night before the day when the control beverage or the test beverage was ingested (test day), a designated dinner was ingested. After 21:00 in the night until 9:00 AM on the test day, the ingestion of foods and beverages excluding water and tea beverages was prohibited. As the designated diet, any menu (curry, chicken and egg bowl, beef bowl, Chinese rice bowl) was selectable which hardly contain substances such as dietary fibers, lactic acid bacteria, and fermentative saccharides utilizable by intestinal bacteria for the fermentations. […] The total GLP-1 amount in the centrifuged blood plasma was measured using the product manufactured by Merck KGaA: “Multi Species GLP-1 Total ELISA.” Note that the subjects were made to keep regular lifestyles and avoid excessive exercising, eating, and drinking during the test period of approximately one month, and spend a time quietly in house during the test.

[4] = test system: murine large intestine-derived, Glucagon-like peptide-1 (GLP-1) producing cell line GLUTag; assay: GLP-1 secretion test in GLUTag cells (preliminary test); assay type: cell-based; details: 10 mM, 20 mM and 40 mM solutions, 60 minutes
Procedure: A murine large intestine-derived, Glucagon-like peptide-1 (GLP-1) producing cell line GLUTag was cultured in 10%-FBS containing Dulbecco's modified Eagle's medium at 37° C. in the presence of 5% CO2. The GLUTag cells were cultured in a 48-well plate for 2 or 3 days until subconfluence. Before each sample (D-psicose or an indigestible dextrin) was added, the wells were washed with a Hepes buffer (140 mM NaCl, 4.5 mM KCl, 20 mM Hepes, 1.2 mM CaCl2, 1.2 mM MgCl2, 10 mM D-glucose, 0.1% BSA, pH: 7.4). Then, 80 μl of a solution of the sample dissolved in the same buffer was added to the wells, and incubated at 37° C. for 60 minutes. After the supernatant was collected, the cells were precipitated by centrifugation (800×g, 5 minutes, 4° C.), and 70 μl of the supernatant was cryopreserved. The total GLP-1 in this supernatant was measured with commercially available “Enzyme immuno assay kit” (manufactured by Yanaihara Institute Inc.).

C57BL/6J male mice [5] = assay: Amount of diet ingested after oral D-psicose with or without GLP-1 receptor inhibitor Ex-9 (Example 3); assay type: in vivo; details: vs control group
Procedure: The C57BL/6J male mice (9-11 weeks old) were preliminarily grown in separate cages for one week or more, and habituated to the growth and experimental environment through training by the experimenter. After the fasting for 16 hours from 18:00 on the day before the experiment, saline or a GLP-1 receptor inhibitor (Exendin-9, Ex-9, 200 nmol/kg) was intraperitoneally administered from 9:45. Immediately thereafter, saline or D-psicose at 1 g/kg was orally administered into each stomach. The doses of the intraperitoneal administration and the oral administration were respectively 5 ml/kg and 10 ml/kg. From 10:00, the mice were fed with Diet CE-2 (common mouse diet with well-balanced nutrients, manufactured by CLEA Japan, Inc.) ad lib. After 0.5 hours, 1 hour, 2 hours, 3 hours, and 6 hours, the amounts of the diet ingested were measured over time. Each amount of the diet ingested was calculated as the amount of energy ingested (kcal), given that 1 g of D-psicose orally administered into the stomach is 0 kcal, and 1 g of Diet CE-2 is 3.45 kcal. As the statistical analyses, a one-way analysis of variance (unpaired) was performed on the results at the respective time points, and multiple comparisons were performed by Tukey's test among all the groups. […] Note that, in FIG. 4, * indicates p<0.05, and ** indicates p<0.01.

[6] = 30 to 60 minutes after administration vs 0 min

O=C[C@H](O)[C@@H](O)[C@H](O)[C@H](O)CO [D-glucose, reference compound]
active GLP-1 concentration in the portal veins (C57BL/6J male mice [1]; 1 g/kg oral): did not change at all
total GIP in the portal veins (C57BL/6J male mice [1]; 1 g/kg oral): significantly increased the GIP concentration

O=C(CO)[C@H](O)[C@H](O)[C@H](O)CO [D-psicose]
active GLP-1 concentration in the portal veins (C57BL/6J male mice [2]; [6]): increased
total GLP-1 concentration in the portal veins (C57BL/6J male mice [2]; [6]): increased
GIP secretion (total GIP concentration in the portal veins) (C57BL/6J male mice [2]; for 60 minutes after administration): did not influence the GIP secretion
active GLP-1 concentration in the portal veins (C57BL/6J male mice [1]; 0.3 g/kg oral): tended to increase
total GIP in the portal veins (C57BL/6J male mice [1]; 0.3 g/kg oral): only the D-glucose administration group significantly increased the GIP concentration
active GLP-1 concentration in the portal veins (C57BL/6J male mice [1]; 1 g/kg oral): significantly increased
total GIP in the portal veins (C57BL/6J male mice [1]; 1 g/kg oral): only the D-glucose administration group significantly increased the GIP concentration
blood sugar level (Sprague Dawley rat): small variation
total GLP-1 concentration in the blood (Sprague Dawley rat): greatly increased
amount of the diet ingested (C57BL/6J male mice [3]; 1 hour to 6 hours after administration): significantly smaller
area under total GLP-1 blood concentration-time curve (AUC) (healthy subjects; single dose 5 g, 10 g or 15 g/200 ml, 15 to 180 minutes): increased in a manner dependent on the amount of D-psicose ingested
single dose at which the effect of promoting the amount of total GLP-1 secreted into the blood was obtained (healthy subjects; single oral ingestion): at least 0.07 g/kg body weight
GLP-1 secretion (total GLP-1 in supernatant) [4]: merely tended to exhibit slight secretion promotion
amount of the diet ingested (C57BL/6J male mice [5]; Ex-9 200 nmol/kg i.p. + D-psicose 1 g/kg oral, 30 minutes after administration): significantly smaller
amount of the diet ingested (C57BL/6J male mice [5]; Ex-9 200 nmol/kg i.p. + D-psicose 1 g/kg oral, after 1 hour (to 6 hours) from administration): not significantly different
amount of the diet ingested (C57BL/6J male mice [5]; saline i.p. + D-psicose 1 g/kg oral, 30 minutes to 6 hours after administration): significantly decreased

O=C(CO)[C@@H](O)[C@@H](O)[C@H](O)CO [D-tagatose, reference compound]
active GLP-1 concentration in the portal veins (C57BL/6J male mice [1]; 1 g/kg oral): tended to increase
total GIP in the portal veins (C57BL/6J male mice [1]; 1 g/kg oral): only the D-glucose administration group significantly increased the GIP concentration
amount of the diet ingested (C57BL/6J male mice [3]; 1 hour after administration): significantly smaller
amount of the diet ingested (C57BL/6J male mice [3]; 2 hours and 6 hours after administration): almost the same

Exendin-9 [Ex9, reference compound]
amount of the diet ingested (C57BL/6J male mice [5]; Ex-9 200 nmol/kg i.p. + saline oral, all time zones): at the same levels
